Laboratory results as given in paper PMC4795541, “A Rapid and Quantitative Flow Cytometry Method for the Analysis of Membrane Disruptive Antimicrobial Activity” (PLoS ONE, 2016).
Where a SMILES comes first, the peptide text is derived from it. [ ]: non-standard residue; d: D form. Phe(ol) = N[C@H](CO)Cc1ccccc1; Aib = CC(C)(N)C(=O)O

Legend:
Experiment in all cases: MDC, flow cytometry Syto9/PI membrane disruption assay
Conditions in all cases: 90 min incubation, average of 3 assays ± SD
[1] = test system: A. baumannii strain 2208, ATCC 19606; format: cell-based, Acinetobacter baumannii
Source text: (§1) The bacterial strains; Fusobacterium nucleatum ATCC 25586, Streptococcus mutans Ingbritt, Staphylococcus aureus (MSSA) ATCC 29213; Staphylococcus aureus (MRSA) ATCC 43300; Enterococcus faecalis ATCC 29212; Enterobacter aerogenes ATCC 13048; Pseudomonas aeruginosa strain PAO1-LAC, ATCC 47085; Klebsiella pneumoniae ATCC 13883; Acinetobacter baumannii strain 2208, ATCC 19606; Escherichia coli ATCC 25922 lyophilised or glycerol stocks were obtained from the culture collection of the Oral Health Cooperative Research Centre, The Melbourne Dental School, University of Melbourne, Australia. These strains were selected for this study as they are widely used in antimicrobial studies and are considered to be important pathogens and major targets for antibiotic resistant studies. […] After overnight incubation, 0.5–2.0 mL of the starter culture was used to inoculate the appropriate fresh broth (200 mL) and growth monitored at 650 nm using a spectrophotometer (model 275E; Perkin-Elmer, Sydney, Australia) with culture purity checked by microscopic examination and culture. Bacteria were harvested during late exponential growth phase and viability and bacteria/mL determined using a BacLight viability kit (Invitrogen, Sydney, Australia) and a Quanta SC-MPL flow cytometer (Beckman coulter Pty, Ltd, Sydney, Australia). […]

[2] = test system: S. aureus (MSSA) ATCC 29213; format: cell-based, Staphylococcus aureus
Source text: as §1

E. aerogenes ATCC 13048 = format: cell-based, Enterobacter aerogenes
Source text: as §1

K. pneumoniae ATCC 13883 = format: cell-based, Klebsiella pneumoniae
Source text: as §1

[3] = test system: P. aeruginosa strain PAO1-LAC, ATCC 47085; format: cell-based, Pseudomonas aeruginosa
Source text: as §1

E. coli ATCC 25922 = format: cell-based, Escherichia coli
Source text: as §1

E. faecalis ATCC 29212 = format: cell-based, Enterococcus faecalis
Source text: as §1

CC(=O)NC(C)(C)C(=O)N1CCC[C@H]1C(=O)NC(C)(C)C(=O)N[C@@H](C)C(=O)NC(C)(C)C(=O)N[C@@H](C)C(=O)N[C@@H](CCC(N)=O)C(=O)NC(C)(C)C(=O)N[C@H](C(=O)NC(C)(C)C(=O)NCC(=O)N[C@@H](CC(C)C)C(=O)NC(C)(C)C(=O)N1CCC[C@H]1C(=O)N[C@H](C(=O)NC(C)(C)C(=O)NC(C)(C)C(=O)N[C@@H](CCC(=O)O)C(=O)N[C@@H](CCC(N)=O)C(=O)N[C@H](CO)Cc1ccccc1)C(C)C)C(C)C [Alamethicin] (Ac-[Aib]P[Aib]A[Aib]AQ[Aib]V[Aib]GL[Aib]PV[Aib][Aib]EQ[Phe(ol)]; N-terminus assumed)
MDC [1]: >250 µM | MDC [2]: 30.3 ± 8.2 µM | MDC (E. aerogenes ATCC 13048): >250 µM | MDC (K. pneumoniae ATCC 13883): >250 µM | MDC [3]: >250 µM | MDC (E. coli ATCC 25922): >250 µM | MDC (E. faecalis ATCC 29212): 48.4 ± 10.9 µM
